According to patent publication US4594241A, “Anti-leishmanial pharmaceutical formulations” (Burroughs Wellcome Co., priority 1982, dated 1986):

How the values were obtained:
Leishmania donovani [1] = assay: Animal test: Balb/c mice infected with Leishmania donovani, intravenous treatment once daily for 5 days, liver parasite count; format: in vivo, Leishmania donovani in Balb/c mice; conditions: for ED50 (P95 limits): i.v. daily for 5 days, 10080 min
Description: (§1) Inbred male mice, strain Balb/c (Bantin & Kingman), were infected with Leishmania donovani by intravenous inoculation of 10^7 amastigotes from the spleen of an infected hamster. One week after inoculation, the mice were divided into groups of 9-10 animals and dosed intravenously into the tail vein with sodium stibogluconate, either as free drug or entrapped in liposomes similar to those described in Example 1. The dose was given once daily for 5 days. Empty liposomes were inoculated into one group as controls. Seven days after the first dose of drug, the mice were killed, the livers excised and weighed, and impression smears prepared from a cut surface of the liver. The impression smears were stained with Giemsa, and number of amastigotes counted microscopically per 500 liver cell nuclei, and the total number of parasites calculated by the method of Stauber et al. J. Protozoology, 5, 269, (1958).
(§2) The doses of sodium stibogluconate were calculated in terms of mg antimony/kg for both free and entrapped drug. The liposome dilutions were freshly prepared for each day of drug treatment.
The results of treatment are expressed as the mean of the total numbers of amastigotes in the liver of each mouse.

Leishmania donovani [2] = assay: Animal test: mice infected with Leishmania donovani, single intravenous injection (Experiment No. 82), liver parasite count; format: in vivo, Leishmania donovani in Balb/c mice
Description: as §1, with “The dose was given once daily for 5 days.” left out
as §2
The results of treatment are expressed as the mean of the total numbers of amastigotes in the liver of each mouse. The following results were obtained:
Further animal tests on mice, as described in Example 2, were carried out using a liposomal formulation corresponding to that described as Preparation No. 8 in Example 2. […]

[3] = expt. 44, 15 mg Sb/kg × 5, i.v.
[4] = expt. 56, 0.5 mg Sb/kg × 5, i.v.
[5] = expt. 56, 1.0 mg Sb/kg × 5, i.v.
[6] = expt. 56, 2.0 mg Sb/kg × 5, i.v.
[7] = expt. 56, 4.0 mg Sb/kg × 5, i.v.

Substance: sodium stibogluconate
- Potency relates to free drug (P95 limits) (Leishmania donovani [1]; Expt. 44): 1
- ED50 (P95 limits) (Leishmania donovani [1]; Expt. 44): 2.4 (3.2-1.8) mg Sb/kg × 5
- Potency relates to free drug (P95 limits) (Leishmania donovani [1]; Expt. 56): 1
- ED50 (P95 limits) (Leishmania donovani [1]; Expt. 56): 1.14 (1.35-0.95) mg Sb/kg × 5
- % inhibition (Leishmania donovani [1]; expt. 44, 5 mg Sb/kg × 5, i.v.): 72%
- Mean no. of parasites/mouse liver ± SE (Leishmania donovani [1]; expt. 44, 5 mg Sb/kg × 5, i.v.): 1.54 ± 0.21 × 10^8
- % inhibition (Leishmania donovani [1]; [3]): 93%
- Mean no. of parasites/mouse liver ± SE (Leishmania donovani [1]; [3]): 0.38 ± 0.08 × 10^8
- % inhibition (Leishmania donovani [1]; [4]): 23%
- Mean no. of parasites/mouse liver ± SE (Leishmania donovani [1]; [4]): 3.80 ± 0.37 × 10^8
- % inhibition (Leishmania donovani [1]; [5]): 26%
- Mean no. of parasites/mouse liver ± SE (Leishmania donovani [1]; [5]): 3.65 ± 0.29 × 10^8
- % inhibition (Leishmania donovani [1]; [6]): 69%
- Mean no. of parasites/mouse liver ± SE (Leishmania donovani [1]; [6]): 1.55 ± 0.36 × 10^8
- % inhibition (Leishmania donovani [1]; [7]): 93%
- Mean no. of parasites/mouse liver ± SE (Leishmania donovani [1]; [7]): 0.35 ± 0.11 × 10^8
- ED50 (dosage rate necessary to reduce the parasite count to 50% of the untreated group) (Leishmania donovani [2]): 61.2 mg antimony per kilogram body weight
